Experimental data from PubChem BioAssay AID588396 (Broad Institute, 2011).
“And” between values parts separate entries of the source, which are not always exact repeats. Equal values may be shown once. Inconclusive results are not listed. The source made the active and inactive calls.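 The calls were made as follows: active = loss of yeast growth signal with half-maximal concentration no more than ten times the top tested dose, in every run; inconclusive = runs disagree, or a weak flat curve or poor fit; inactive = inactive in every run.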

Test system: not listed separately
Test: growth inhibition of yeast expressing PfHsp90, dose response, antimalarial PfHsp90 inhibitor project, S. cerevisiae, BacTiter-Glo luminescence, dry powder samples (AID 588396)
Conditions: S. cerevisiae expressing PfHsp90, BacTiter-Glo ATP luminescence, 48 h; at 26 µM (top of the series)

SMILES | activity change, negative = inhibition
COc1ccc2c(c1)[nH]c1c(C)nccc12 | 217% (inactive)
Nc1c2ccccc2nc2ccccc12 (tested in a mixture with another compound) | 51.8% (inactive) and 38.4% (inactive)
O=C1C(Cl)=C(NCCc2ccccc2)C(=O)c2ccccc21 | 1.42% (inactive)
Cc1ccc(N2C(=O)C3C4C=CC(CNC(=S)Nc5cccc(Cl)c5)(O4)C3C2=O)cc1 (stereo not given) | -41.4% (inactive)

Test system: S. cerevisiae expressing PfHsp90, BacTiter-Glo ATP luminescence, 48 h
Test: as above
Conditions: not given

SMILES | AC50 [µM]
COc1ccc2c(c1)C=C(C(=O)NCc1ccc(Cl)cc1)CO2 | 8.85
O=C(O)/C=C/c1cn(-c2ccccc2)nc1-c1cc2ccccc2o1 | 9.7
CCN(CC)c1ccc(/C=C2/SC(=O)N(C(C)C)C2=O)o1 | 12.2
Cc1ccc(N2C(=O)C3C4C=CC(CNC(=S)Nc5ccc(F)cc5)(O4)C3C2=O)cc1 (stereo not given) | 26.3
O=C1C(Cl)=C(Oc2ccccc2)C(=O)c2ccccc21 | 0.974
O=S(=O)(/C=C/c1ccccc1)NC1CCCCCCC1 | 6.52
O=S(=O)(NC1CC2CCC1C2)c1ccc(Cl)cc1 (stereo not given) | 3.25
O=S(=O)(NC1CCCCCC1)c1ccc(Br)s1 | 1.34
CCOc1cc(S(=O)(=O)NC2CCCCCC2)ccc1F | 7.34
Cc1ccc(O)c(NC(=S)NC(=O)c2ccc(-c3ccc(Cl)cc3)o2)c1 | 6.37
O=C(CSCC(=O)N1CCCCC1)Nc1nc(-c2ccc(Cl)s2)cs1 | 14.5
